Experimental data from patent US11357786B2, “Synthetic disugar hydrocarbons as natural analogs to control microbial behaviors” (Syracuse University, priority 2014, dated 2022).

What was measured:
Assay type in all cases: cell-based, Pseudomonas aeruginosa
wild type PAO1 = test: Swarming motility of wild type PAO1 on soft agar (antagonist assay); details: for Swarming of wild type PAO1: 110 μM in soft agar; for Effect on PAO1 swarming: concentration not given
Procedure, shortened: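 Wild-type PAO1 culture (OD600 ~0.4–0.6, 3 μl) spotted on M8 swarm agar with 0.2% glucose, 0.5% casamino acids, 1 mM MgSO4 and 0.5% agar. Plates incubated 12 h at 37 °C then 12 h at room temperature; swarm area measured by cutting and weighing printed plate images.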

[1] = system: nonswarming P. aeruginosa mutant rhlA; test: Swarming motility of nonswarming rhlA mutant on soft agar (reactivation / agonist assay); details: for Swarming reactivation of rhlA mutant: 110 μM in soft agar; for Reactivation of swarming motility of rhlA mutant: concentration not given
Procedure, shortened: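 rhlA transposon mutant of PAO1 (3 μl, OD600 0.4–0.6) inoculated on M8 soft agar (0.2% glucose, 0.5% casamino acids, 1 mM MgSO4, 0.5% agar) with test compound to find swarming agonists. Incubated 12 h at 37 °C plus 12 h at room temperature; swarm area measured by weighing paper cut-outs of imaged swarms.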

PAO1 biofilm [2] = test: Crystal violet based static biofilm inhibition assay, DSHs in LB media (Examples 2 and 4); details: for Inhibition of PAO1 biofilm formation (surface attached): 160 μM, 24 h, LB media; for Anti-biofilm activity (biofilm inhibition): concentration not given
Procedure, shortened: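 PAO1 subculture (OD600 ~0.1) was grown statically in LB at 37° C for 24 h with or without DSHs (screened at 160 μM). Surface-attached biofilm was then stained with 0.1% crystal violet, solubilised in 30% AcOH and read at 600 nm. Values are the mean of 4 wells.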

PAO1-EGFP biofilm = test: Biofilm on steel coupons, fluorescence / CLSM; details: 160 μM, 24 h, LB media
Protocol: (§1) A crystal violet (CV) assay was used to measure the amount of PAO1 biofilm formed after 24 h of bacterial inoculation. The fluorescence of green fluorescent proteins (GFP) expressed by PAO1-GFP was measured to directly quantify bacterial adhesion on polystyrene black 96 well plates with and without maltose derivatives after 2 h of bacterial inoculation. To evaluate the potential of maltose derivatives as both anti-biofilm and anti-adhesion agents, they were compared to a brominated furanone (BF8) known to inhibit biofilm formation, and two generic surfactants, sodium dodecyl sulfate (SDS) and tetra (ethylene glycol) monododecyl ether (C12EG4OH). […] P. aeruginosa strain PAO1-EGFP that constitutively producing green fluorescent protein was allowed to form biofilm on sterile steel coupons.
Confocal laser scanning microscopy (CLSM) based biofilm inhibition assay. Steel coupons (˜1×1 cm) were washed with EtOH, dried under a stream of nitrogen and then sterilized in an autoclave. Overnight culture of PAO1/EGFP (OD600 ˜1.0) grown in LB media (supplemented with 300 μg/mL of carbenicillin), was sub-cultured to OD600˜0.01 and then the OD600 was allowed to reach ˜0.1. Aliquot (600 μL) of PAO1/EGFP subculture OD600˜0.1 was then added into the wells of a 24-well micro titer plate. DSHs were then introduced into the assigned wells to reach a resultant concentration of 160 μM. Bacterial sub-culture with no agent served as positive control. Sterile steel coupons were then placed into the wells and the plates were wrapped with saran wrap and incubated for 24 h at 37° C. under static conditions. After 24 hours, the steel coupons were removed and washed by dipping in PBS buffer (2 washes) and the dried by holding with a forcep and gently dabbing the edge on a bleached paper (KIM wipes). The dried steel coupons were viewed under confocal laser scanning microscope (CLSM). Images were taken at 4 random locations on each steel coupons. Z-stacked images were also taken to determine the relative thickness of the biofilm.

24 h old PAO1 biofilm = test: Crystal violet biofilm dispersion assay, maltose derivatives (Example 1); details: for DC50: 24 h old biofilm, read-out: Biofilm dispersion DC50 (half-maximal dispersion)
Protocol: Chemical dispersion of already formed biofilm is often more relevant to medical application, and more challenging than biofilm inhibition assays, for which the agents are introduced at the onset of an experiment. We screened the ability of maltose derivatives at 110 μM to disperse 24 h old biofilm.
PAO1 was allowed to grow for 24 h at 37° C. After 24 h, bacterial culture was pipetted out and replaced with 200 μL of 110 μM maltose hydrocarbons and sterile water (control). After 1 h treatment with maltose hydrocarbons, biofilm was fixed and quantified using crystal violet dye as described above. The amount of dispersed biofilm was determined via comparison of the amount of biofilm at 24 h in the presence of maltose hydrocarbons versus the amount of biofilm in the “no compound” positive control at 24 h (wells with water treatment).
(§2) Predetermined amounts maltose derivatives stock solution was added to the 200 μL bacterial culture in 96 well plate so that the final concentration of the agent reaches the desired values of 1, 5, 10, 20, 40, 85, 113, 140 μM. Biofilm inhibition and dispersion assay was carried as described previously.

PAO1 biofilm [3] = test: Crystal violet dye based biofilm inhibition assay, maltose derivatives (Example 1); details: for IC50: CV dye based assay
Protocol: as §1
Inhibitory effect of all the maltose hydrocarbons on P. aeruginosa biofilm formation was determined by crystal violet dye based biofilm inhibition assays. Overnight culture of wild type P. aeruginosa (PAO1) was sub cultured to an OD600 of 0.01 into the 95:5 M9+:Lb medium. 200 μL of the sub culture was aliquoted into the wells of 96 well polystyrene microtiter plate when it reached the OD600 of 0.1. Predetermined concentrations of the test compounds were then added to the respective wells containing sub culture. Sample plates were wrapped in GLAD Press n′ Seal® followed by incubation under stationary conditions for 24 h at 37° C. After incubation the media was discarded and the plates were washed with water and dried for 1 h at 37° C. The sample plates were stained with 200 μL of 0.1% aqueous solution of crystal violet (CV) and followed by incubation at ambient temperature for 20 min. The CV stain was then discarded and the plates were washed with water. The remaining biofilm adhered stain was re-solubilized with 200 μL of 30% acetic acid. After the stain was dissolved (15 minutes), 100 μL of the solubilized CV was transferred from each well into the corresponding wells of a new polystyrene microtiter dish. Biofilm inhibition was quantified by measuring the OD600 of each well in which a negative control lane wherein no biofilm was formed served as a background and was subtracted out. The percent inhibition was calculated by the comparison of the OD600 for biofilm grown in the absence of compound (control) versus biofilm grown in the presence of compound under identical conditions.
as §2

[4] = 85 μM in soft agar (0.5%), 24 h

Compound: CCCCCCCCCCCCO[C@@H]1O[C@H](CO)[C@@H](O[C@@H]2O[C@H](CO)[C@@H](O)[C@H](O)[C@H]2O)[C@H](O)[C@H]1O [DβC (4), dodecyl-β-cellobioside]
- Concentration at which tendrils were induced in PAO1 (wild type PAO1): 20 µM
- Swarming motility of wild type PAO1 (wild type PAO1; 20 μM): stronger inhibition than rhamnolipids
- Swarming area of PAO1 smaller than control (wild type PAO1; 85 μM): ~46%
- Swarming motility of wild type PAO1 (wild type PAO1; 85 μM in soft agar, 24 h): causing significant amount of tendril formation
- Swarming area of wild type PAO1 (wild type PAO1; 85 μM, control ~24 cm2): ~13 cm2
- Swarming of wild type PAO1 (wild type PAO1; 24 h, listed as 4: DbC): promotes tendril formation
- Swarming of wild type PAO1 (wild type PAO1; 24 h, listed as 4: DβC): induced more tendril formation
- Effect on PAO1 swarming (wild type PAO1): induced tendril formation in the swarming pattern of PAO1
- Concentration of activity reversal for swarming inhibition of PAO1 (transition concentration) (wild type PAO1; soft agar): ~20 to 30 µM
- Concentration at which tendril formation was induced in rhlA mutant [1]: ~56 µM
- Concentration of first inhibition of rhlA swarming [1]: around 50 μM
- Swarming motility of rhlA mutant ([1]; 40 μM): activated the swarming motility of rhlA mutant
- Swarming motility of rhlA mutant [1, 4]: strong reactivation of the swarming motility in rhlA mutant
- Swarming reactivation of rhlA mutant ([1]; 24 h, listed as 4: DbC): fully restores swarming with fine tendrils
- Swarming reactivation of rhlA mutant ([1]; 24 h, listed as 4: DβC): fully restored the swarming of rhlA
- Concentration of another activation of rhlA swarming ([1]; after first inhibition): about 160 μM
- Concentration of activity reversal for swarming promotion of rhlA mutant (transition concentration) ([1]; soft agar): ^a~45-56 μM
- Lowest concentration that reactivates swarming of rhlA mutant ([1]; soft agar): ≤ 20 µM
- Concentration of activity reversal for swarming promotion of rhlA mutant (transition concentration) ([1]; soft agar, listed as 4): 45 to 56 µM
- Inhibition of PAO1 biofilm formation (surface attached) (PAO1 biofilm [2]; listed as 4: DβC, 160 µM): 60%
- Inhibition of PAO1 biofilm formation (surface attached) (PAO1 biofilm [2]; listed as DISC (4)): 62%
- IC50 (PAO1 biofilm [2]; Example 4, FIG. 30): ~72 µM
- PAO1-EGFP biofilm on stainless steel coupons (CLSM) (PAO1-EGFP biofilm): decreased the fluorescence signal significantly

Compound: CCCCCCCCCCCC[N+](C)(C)C.[Cl-] [DTAC, dodecyl trimethyl ammonium chloride, reference compound]
- Reactivation of swarming motility of rhlA mutant [1]: did not promote or reactivate
- Anti-biofilm activity (dispersion) (24 h old PAO1 biofilm; concentration not given): did not show any anti-biofilm activities
- Anti-biofilm activity (inhibition) (PAO1 biofilm [3]; concentration not given): did not show any anti-biofilm activities

Compound: O=C(c1ccccc1)c1ccc(COCCCCCCCCCCO[C@@H]2O[C@H](CO)[C@@H](O[C@H]3O[C@H](CO)[C@@H](O)[C@H](O)[C@H]3O)[C@H](O)[C@H]2O)cc1 [BPDeβM, benzophenonyl decyl β-maltoside]
- Swarming motility of rhlA mutant [1, 4]: swarming motility with without well-defined tendrils
- DC50 (24 h old PAO1 biofilm): 31 µM
- IC50 (PAO1 biofilm [3]): 22.5 µM

Compound: CCCCCCCCCCCCO[C@@H]1O[C@H](CO)[C@@H](O[C@@H]2O[C@H](CO)[C@H](O)[C@H](O)[C@H]2O)[C@H](O)[C@H]1O [DβL (7), dodecyl-β-lactoside]
- Swarming of wild type PAO1 (wild type PAO1; 24 h): did not significantly affect the swarm pattern
- Swarming reactivation of rhlA mutant ([1]; 24 h): incapable of reactivating the swarming
- Inhibition of PAO1 biofilm formation (surface attached) (PAO1 biofilm [2]): insignificant biofilm inhibition
- Inhibition of PAO1 biofilm formation (surface attached) (PAO1 biofilm [2]; listed as 7: DβL, 160 µM): severely compromised the anti-biofilm activity
- Anti-biofilm activity (biofilm inhibition) (PAO1 biofilm [2]): low activities
- PAO1-EGFP biofilm on stainless steel coupons (CLSM) (PAO1-EGFP biofilm): bacterial surface coverage comparable to that of control

Compound: benzyl dodecyl β-maltoside [BDβM]
- Swarming motility of rhlA mutant [1, 4]: swarming motility with without well-defined tendrils
- DC50 (24 h old PAO1 biofilm): 32 µM
- IC50 (PAO1 biofilm [3]): 27.5 µM

Compound: CCCCCCCCCCO[C@@H]1O[C@H](CO)[C@@H](O[C@@H]2O[C@H](CO)[C@@H](O)[C@H](O)[C@H]2O)[C@H](O)[C@H]1O [DeβC (2), decyl-β-cellobioside]
- Swarming motility of wild type PAO1 (wild type PAO1; 85 μM in soft agar, 24 h): did not show a noticeable effect on the swarming motility
- Swarming of wild type PAO1 (wild type PAO1; 24 h): did not significantly affect the swarm pattern
- Swarming motility of wild type PAO1 (wild type PAO1; 160 μM in soft agar, 24 h): weak promotion of swarming motility of wild type PAO1
- Effect on PAO1 swarming (wild type PAO1): no apparent effect on PAO1 swarming
- Swarming motility of rhlA mutant [1, 4]: did not show a noticeable effect on the swarming motility
- Swarming reactivation of rhlA mutant ([1]; 24 h): incapable of reactivating the swarming
- Swarming motility of rhlA mutant ([1]; 160 μM in soft agar, 24 h): weak activation of rhlA swarming motility
- Reactivation of swarming motility of rhlA mutant [1]: activated the swarming motility of rhlA mutant
- Increase of reactivated swarming ring of rhlA with respect to swarming ring of PAO1 without agents ([1]; increasing from 85 to 160 μM): 38%
- Inhibition of PAO1 biofilm formation (surface attached) (PAO1 biofilm [2]): insignificant biofilm inhibition and no
- Inhibition of PAO1 biofilm formation (surface attached) (PAO1 biofilm [2]; listed as 2: DeβC, 160 µM): complete loss of anti-biofilm activity
- Anti-biofilm activity (biofilm inhibition) (PAO1 biofilm [2]): did not show significant inhibition of PAO1 biofilm
- Anti-biofilm activity (biofilm inhibition) (PAO1 biofilm [2]; listed as DβC (2)): did not show anti-biofilm activities
- PAO1-EGFP biofilm on stainless steel coupons (CLSM) (PAO1-EGFP biofilm): bacterial surface coverage comparable to that of control
